Data set [1] concerns the target T1, human cloned 5-HT6 receptors (Homo sapiens, UniProt P50406).
T1 construct: expressed in transfected cells; host or cells: HeLa cells
Briefly: 5-HT6 binding affinity, [3H]-LSD displacement on membranes of Hela cells expressing human cloned 5-HT6 receptors. Particulars: [3H]-LSD 3.0 nM, Hela cell membranes, 120 min at room temperature. The method, then:
The affinity of test compounds for the serotonin 5-HT6 receptor is evaluated in the following manner. Cultured Hela cells expressing human cloned 5-HT6 receptors are harvested and centrifuged at low speed (1,000×g) for 10.0 min to remove the culture media. The harvested cells are suspended in half volume of fresh physiological phosphate buffered saline solution and recentrifuged at the same speed. This operation is repeated. The collected cells are then homogenized in ten volumes of 50 mM Tris.HCl (pH 7.4) and 0.5 mM EDTA. The homogenate is centrifuged at 40,000×g for 30.0 min and the precipitate is collected. The obtained pellet is resuspended in 10 volumes of Tris.HCl buffer and recentrifuged at the same speed. The final pellet is suspended in a small volume of Tris.HCl buffer and the tissue protein content is determined in aliquots of 10-25 μl volumes. Bovine Serum Albumin is used as the standard in the protein determination according to the method described in Lowry et al., J. Biol. Chem., 193:265 (1951). The volume of the suspended cell membranes is adjusted to give a tissue protein concentration of 1.0 mg/ml of suspension. The prepared membrane suspension (10 times concentrated) is aliquoted in 1.0 ml volumes and stored at −70° C. until used in subsequent binding experiments.
Binding experiments are performed in a 96 well microtiter plate format, in a total volume of 200 μl. […] The test compounds are added in 20.0 μl volume.
The reaction is allowed to proceed in the dark for 120 min at room temperature, at which time, the bound ligand-receptor complex is filtered off on a 96 well unifilter with a Packard Filtermate® 196 Harvester. The bound complex caught on the filter disk is allowed to air dry and the radioactivity is measured in a Packard TopCount® equipped with six photomultiplier detectors, after the addition of 40.0 μl Microscint®-20 scintillant to each shallow well. The unifilter plate is heat-sealed and counted in a PackardTopCount® with a tritium efficiency of 31.0%.
Binding in the presence of varying concentrations of test compound is expressed as a percentage of specific binding in the absence of test compound. The results are plotted as log % bound versus log concentration of test compound. […] A linear regression line of data points is plotted, from which the IC50 value is determined and the Ki value is determined based upon the following equation: […]
where L is the concentration of the radioactive ligand used and KD is the dissociation constant of the ligand for the receptor, both expressed in nM.

This note sets out measurements from patent publication US6815456B2, “Heterocyclyloxy-, -thioxy- and -aminobenzazole derivatives as 5-hydroxytryptamine-6 ligands” (Wyeth, priority 2001, dated 2004).

Counter-ions that a name gives are not always drawn.

T1 sequence (P50406 whole entry): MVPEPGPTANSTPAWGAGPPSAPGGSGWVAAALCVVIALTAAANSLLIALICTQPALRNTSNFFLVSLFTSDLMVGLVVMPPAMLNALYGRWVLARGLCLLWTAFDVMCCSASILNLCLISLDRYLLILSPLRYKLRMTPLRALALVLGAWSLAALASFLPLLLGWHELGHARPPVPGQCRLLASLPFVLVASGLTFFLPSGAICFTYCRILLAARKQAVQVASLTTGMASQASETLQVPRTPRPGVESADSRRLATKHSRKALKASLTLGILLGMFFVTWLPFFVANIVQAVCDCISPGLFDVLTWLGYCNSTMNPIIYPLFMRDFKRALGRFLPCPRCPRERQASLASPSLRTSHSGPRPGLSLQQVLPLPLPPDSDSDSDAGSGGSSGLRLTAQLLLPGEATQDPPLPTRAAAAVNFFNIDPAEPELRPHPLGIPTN

For `Nc1ccc(S(=O)(=O)n2ccc3c(OC4CCCNC4)cccc32)cc1` (stereo not shown) [Example 9, 4-{[4-(piperidin-3-yloxy)-1H-indol-1-yl]sulfonyl}aniline], the inhibition constant Ki (commonly a dissociation constant, usually derived from enzyme kinetics or from competition with a known ligand) in data set [1] was determined as 11 nM.
`CC(=O)Nc1ccc(S(=O)(=O)n2ncc3c(OC4CCNC4)cccc32)cc1Cl` (stereo not shown) [Example 20, N-(2-Chloro-4-{[4-(3-pyrrolidinyloxy)-1H-indazol-1-yl]sulfonyl}phenyl)acetamide]: affinity in data set [1] was put at a Ki of 12 nM.
Same read-out and setting: the value for `O=S(=O)(c1ccccc1F)n1ncc2c(OC3CCNC3)cccc21` (stereo not shown) [Example 17, 1-[(2-fluorophenyl)sulfonyl]-4-(3-pyrrolidinyloxy)-1H-indazole] was 25 nM; that for `O=S(=O)(c1cccc2ccccc12)n1ccc2c(OC3CCNC3)cccc21` (stereo not shown) [Example 6, 1-(1-naphthylsulfonyl)-4-(3-pyrrolidinyloxy)-1H-indole] was 13 nM.
With `O=S(=O)(c1ccc(Cl)s1)n1ncc2c(OC3CCNC3)cccc21` (stereo not shown) (as salt: trifluoroacetic acid salt) [Example 19, 1-[(5-Chlorothien-2-yl)sulfonyl]-4-(3-pyrrolidinyloxy)-1H-indazole], the melting point – broadly, the temperature, or range, at which the solid turns liquid – was 102 to 103 °C.
The same measure, in the same setting: the same measure for `CC(=O)Nc1ccc(S(=O)(=O)n2ncc3c(OC4CCNC4)cccc32)cc1Cl` (stereo not shown) (as salt: trifluoroacetic acid salt) [Example 20, N-(2-Chloro-4-{[4-(3-pyrrolidinyloxy)-1H-indazol-1-yl]sulfonyl}phenyl)acetamide]: 68 to 72 °C.
For `O=S(=O)(c1ccccc1)n1ccc2c(OC3CCNC3)cccc21` (stereo not shown) [Example 3, 1-(Phenylsulfonyl)-4-(3-pyrrolidinyloxy)-1H-indole Hydrochloride], the Ki in data set [1] came to 8 nM.
Take `Nc1ccc(S(=O)(=O)n2ccc3c(OC4CCNC4)cccc32)cc1` (stereo not shown) [Example 5, 4-{[4-(3-pyrrolidinyloxy)-1H-indol-1-yl]sulfonyl}aniline]: in data set [1], affinity was put at a Ki of 5 nM.
`Nc1ccc(S(=O)(=O)n2ccc3c(OC4CCNCC4)cccc32)cc1` (as salt: hydrochloride) [Example 8, 4-{[4-(piperidin-4-yloxy)-1H-indol-1-yl]sulfonyl}aniline] yielded a melting point of 117 to 119 °C.
`CC(=O)Nc1ccc(S(=O)(=O)n2ncc3c(OC4CCNC4)cccc32)cc1` (stereo not shown) [Example 21]: in data set [1], the inhibition constant (Ki) worked out at 124 nM.
Still for that read-out and setting: the same measure for `O=S(=O)(c1cccs1)n1ccc2c(OC3CCNC3)cccc21` (stereo not shown) [Example 4, 4-(3-pyrrolidinyloxy)1-(thien-2-ylsulfonyl)-1H-indole]: 25 nM.
In turn, `O=S(=O)(c1cccc2ccccc12)n1ncc2c(OC3CCNC3)cccc21` (stereo not shown) (as salt: trifluoroacetic acid salt) [Example 15, 1-(1-naphthylsulfonyl)-4-(3-pyrrolidinyloxy)-1H-indazole] registered a melting point of 200 to 201 °C.
On the same count and under the same terms, the value for `Nc1ccc(S(=O)(=O)n2ccc3c(OC4CCCNC4)cccc32)cc1` (stereo not shown) (as salt: hydrochloride) [Example 9, 4-{[4-(piperidin-3-yloxy)-1H-indol-1-yl]sulfonyl}aniline] was 160 °C (dec.).
On to `O=S(=O)(c1cccc2ccccc12)n1ncc2c(OC3CCNC3)cccc21` (stereo not shown) [Example 15, 1-(1-naphthylsulfonyl)-4-(3-pyrrolidinyloxy)-1H-indazole], for which the affinity in data set [1] corresponds to a Ki of 3 nM.
Same read-out and setting: the value for `O=S(=O)(c1ccc(Cl)s1)n1ncc2c(OC3CCNC3)cccc21` (stereo not shown) [Example 19, 1-[(5-Chlorothien-2-yl)sulfonyl]-4-(3-pyrrolidinyloxy)-1H-indazole] was 9 nM; that for `O=S(=O)(c1ccccc1Cl)n1ncc2c(OC3CCNC3)cccc21` (stereo not shown) [Example 16, 1-[(2-Chlorophenyl)sulfonyl]-4-(3-pyrrolidinyloxy)-1H-indazole] was 19 nM; that for `COc1ccc(S(=O)(=O)n2ncc3c(OC4CCNC4)cccc32)cc1OC` (stereo not shown) [Example 18] was 75 nM.
Still for that read-out and setting: the value for `O=S(=O)(c1cccc2cccnc12)n1ncc2c(OC3CCNC3)cccc21` (stereo not shown) [Example 22, 8-{[4-(3-pyrrolidinyloxy)-1H-indazol-1-yl]sulfonyl}quinoline] was 22 nM; that for `Nc1ccc(S(=O)(=O)n2ccc3c(OC4CCNCC4)cccc32)cc1` [Example 8, 4-{[4-(piperidin-4-yloxy)-1H-indol-1-yl]sulfonyl}aniline] was 3 nM.
Take `O=S(=O)(c1ccccc1Cl)n1ncc2c(OC3CCNC3)cccc21` (stereo not shown) (as salt: trifluoroacetic acid salt) [Example 16, 1-[(2-Chlorophenyl)sulfonyl]-4-(3-pyrrolidinyloxy)-1H-indazole]: the melting point lay in the range of 161 to 163 °C.
Still for that read-out and setting: the value for `O=S(=O)(c1cccc2ccccc12)n1ccc2c(OC3CCNC3)cccc21` (stereo not shown) (as salt: hydrochloride) [Example 6, 1-(1-naphthylsulfonyl)-4-(3-pyrrolidinyloxy)-1H-indole] was 179 °C (dec.).
On the same count and under the same terms, the same measure for `O=S(=O)(c1cccc2cccnc12)n1ncc2c(OC3CCNC3)cccc21` (stereo not shown) (as salt: trifluoroacetic acid salt) [Example 22, 8-{[4-(3-pyrrolidinyloxy)-1H-indazol-1-yl]sulfonyl}quinoline]: 79 °C; for `Cc1nn(C)c(Cl)c1S(=O)(=O)n1ccc2c(OC3CCNC3)cccc21` (stereo not shown) (as salt: hydrochloride) [Example 7, 1-[(5-Chloro-1,3-dimethyl-1H-pyrazol-4-yl)sulfonyl]-4-(3-pyrrolidinyloxy)-1H-indole]: 100 °C (dec.).
Turning to `O=S(=O)(c1ccccc1)n1ncc2c(OC3CCNC3)cccc21` (stereo not shown) [Example 14, 1-(Phenylsulfonyl)-4-(pyrrolidin-3-yloxy)-1H-indazole, trifluoroacetic acid salt], the Ki in data set [1] was 19 nM.
In turn, `O=S(=O)(c1ccccc1F)n1ncc2c(OC3CCNC3)cccc21` (stereo not shown) (as salt: trifluoroacetic acid salt) [Example 17, 1-[(2-fluorophenyl)sulfonyl]-4-(3-pyrrolidinyloxy)-1H-indazole] registered a melting point of 162 to 163 °C.
